Data reported in the supplement of paper PMC9663587.

Tests used:
[1] = compound: CCc1cnn2c(NCc3ccc[n+]([O-])c3)cc(N3CCCC[C@H]3CCO)nc12
LEE011/Ribociclib [2] = compound: T1, CN(C)C(=O)c1cc2cnc(Nc3ccc(N4CCNCC4)cn3)nc2n1C1CCCC1 [LEE011/Ribociclib]
Doxorubicin = compound: COc1cccc2c1C(=O)c1c(O)c3c(c(O)c1C2=O)C[C@@](O)(C(=O)CO)C[C@@H]3O[C@H]1C[C@H](N)[C@H](O)[C@H](C)O1 [Doxorubicin]
Pictilisib/GDC0941 = compound: CS(=O)(=O)N1CCN(Cc2cc3nc(-c4cccc5[nH]ncc45)nc(N4CCOCC4)c3s2)CC1 [Pictilisib/GDC0941]
Ceritinib/LDK378 = compound: Cc1cc(Nc2ncc(Cl)c(Nc3ccccc3S(=O)(=O)C(C)C)n2)c(OC(C)C)cc1C1CCNCC1 [Ceritinib/LDK378]
[3] = compound: Cc1nn(C)c(COc2ccc(N3CCN(S(=O)(=O)N(C)C)CC3)cc2)c1-c1cccc2c(CCCOc3cccc4ccccc34)c(C(=O)O)n(CCN3CCOCC3)c12
YKL-5-124 = compound: C=CC(=O)Nc1ccc(C(=O)Nc2[nH]nc3c2CN(C(=O)N[C@H](CN(C)C)c2ccccc2)C3(C)C)cc1 [YKL-5-124]; experiment: increase in dead-cell fraction, 72 h; higher = more death;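 note: breast cancer cell lines in 384-well plates, stained with Hoechst plus LIVE/DEAD far red dye and imaged, cells above an LDR intensity threshold counted dead, Hoechst-negative corpses included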
BSJ-03-123 = compound: CC(=O)c1c(C)c2cnc(Nc3ccc(N4CCN(CCOCCOCCOCCNC(=O)COc5cccc6c5C(=O)N(C5CCC(=O)NC5=O)C6=O)CC4)cn3)nc2n(C2CCCC2)c1=O [BSJ-03-123]; experiment: as above
[4] = compound: CC(=O)c1c(C)c2cnc(Nc3ccc(N4CCNCC4)cn3)nc2n(C2CCCC2)c1=O; experiment: as above
[5] = compound: CCN1CCN(Cc2ccc(Nc3ncc(F)c(-c4cc(F)c5nc(C)n(C(C)C)c5c4)n3)nc2)CC1; experiment: as above
Neratinib/HKI272 = compound: CCOc1cc2ncc(C#N)c(Nc3ccc(OCc4ccccn4)c(Cl)c3)c2cc1NC(=O)/C=C/CN(C)C [Neratinib/HKI272]; experiment: as above
[6] = compound: CCc1cnn2c(NCc3ccc[n+]([O-])c3)cc(N3CCCC[C@H]3CCO)nc12; experiment: as above
LEE011/Ribociclib [7] = compound: T1, LEE011/Ribociclib; experiment: as above
THZ531 = compound: CN(C)C/C=C/C(=O)Nc1ccc(C(=O)N2CCC[C@@H](Nc3ncc(Cl)c(-c4c[nH]c5ccccc45)n3)C2)cc1 [THZ531]; experiment: as above
THZ1 = compound: CN(C)C/C=C/C(=O)Nc1ccc(C(=O)Nc2cccc(Nc3ncc(Cl)c(-c4c[nH]c5ccccc45)n3)c2)cc1 [THZ1]; experiment: as above
Flavopiridol = compound: CN1CC[C@H](c2c(O)cc(O)c3c(=O)cc(-c4ccccc4Cl)oc23)[C@H](O)C1 [Flavopiridol]; experiment: as above
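Throughout, for GR50, 72 h: breast cancer and non-malignant breast epithelial cell lines, Deep Dye Drop or Dye Drop imaging, nine half-log doses, GR normalized to time-zero plates and DMSO-only controls.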

MDAMB436
GR50, 72 h [1]: 0.0143 µM | GR50, 72 h (LEE011/Ribociclib [2]): > 10 µM | GR50, 72 h (Doxorubicin): 0.00761 µM | GR50, 72 h (Pictilisib/GDC0941): 5.27 µM | GR50, 72 h (Ceritinib/LDK378): 0.499 µM | GR50, 72 h [3]: > 10 µM | increase in dead-cell fraction (YKL-5-124; 0.001 µM): -0.0039 | increase in dead-cell fraction (YKL-5-124; 0.003162 µM): 0.0007 | increase in dead-cell fraction (YKL-5-124; 0.01 µM): 0.019 | increase in dead-cell fraction (YKL-5-124; 0.03162 µM): 0.0153 | increase in dead-cell fraction (YKL-5-124; 0.1 µM): 0.0342 | increase in dead-cell fraction (YKL-5-124; 0.3162 µM): 0.0446 | increase in dead-cell fraction (YKL-5-124; 1 µM): 0.0289 | increase in dead-cell fraction (YKL-5-124; 3.162 µM): 0.027 | increase in dead-cell fraction (YKL-5-124; 10 µM): 0.132 | increase in dead-cell fraction (BSJ-03-123; 0.001 µM): -0.0105 | increase in dead-cell fraction (BSJ-03-123; 0.003162 µM): 0.0015 | increase in dead-cell fraction (BSJ-03-123; 0.01 µM): 0.0056 | increase in dead-cell fraction (BSJ-03-123; 0.03162 µM): -0.0027 | increase in dead-cell fraction (BSJ-03-123; 0.1 µM): 0.0104 | increase in dead-cell fraction (BSJ-03-123; 0.3162 µM): 0.0058 | increase in dead-cell fraction (BSJ-03-123; 1 µM): -0.0041 | increase in dead-cell fraction (BSJ-03-123; 3.162 µM): 0.0011 | increase in dead-cell fraction (BSJ-03-123; 10 µM): 0.0742 | increase in dead-cell fraction ([4]; 0.0003162 µM): -0.0017 | increase in dead-cell fraction ([4]; 0.001 µM): 0.0024 | increase in dead-cell fraction ([4]; 0.003162 µM): -0.0027 | increase in dead-cell fraction ([4]; 0.01 µM): -0.0025 | increase in dead-cell fraction ([4]; 0.03162 µM): 0 | increase in dead-cell fraction ([4]; 0.1 µM): 0.0005 | increase in dead-cell fraction ([4]; 0.3162 µM): -0.0024 | increase in dead-cell fraction ([4]; 1 µM): -0.0052 | increase in dead-cell fraction ([4]; 3.162 µM): 0.0044 | increase in dead-cell fraction ([5]; 0.001 µM): 0.0024 | increase in dead-cell fraction ([5]; 0.003162 µM): -0.005 | increase in dead-cell fraction ([5]; 0.01 µM): 0.0007 | increase in dead-cell fraction ([5]; 0.03162 µM): -0.0009 | increase in dead-cell fraction ([5]; 0.1 µM): 0.0076 | increase in dead-cell fraction ([5]; 0.3162 µM): 0.0116 | increase in dead-cell fraction ([5]; 1 µM): 0.0346 | increase in dead-cell fraction ([5]; 3.162 µM): 0.0531 | increase in dead-cell fraction ([5]; 10 µM): 0.316 | increase in dead-cell fraction (Neratinib/HKI272; 0.0003162 µM): 0.0013 | increase in dead-cell fraction (Neratinib/HKI272; 0.001 µM): 0.0034 | increase in dead-cell fraction (Neratinib/HKI272; 0.003162 µM): -0.0005 | increase in dead-cell fraction (Neratinib/HKI272; 0.01 µM): 0.0014 | increase in dead-cell fraction (Neratinib/HKI272; 0.03162 µM): 0.0028 | increase in dead-cell fraction (Neratinib/HKI272; 0.1 µM): 0.0066 | increase in dead-cell fraction (Neratinib/HKI272; 0.3162 µM): 0.0167 | increase in dead-cell fraction (Neratinib/HKI272; 1 µM): 0.0223 | increase in dead-cell fraction (Neratinib/HKI272; 3.162 µM): 0.0987 | increase in dead-cell fraction ([6]; 0.0001 µM): -0.0027 | increase in dead-cell fraction ([6]; 0.0003162 µM): -0.0028 | increase in dead-cell fraction ([6]; 0.001 µM): 0.0008 | increase in dead-cell fraction ([6]; 0.003162 µM): 0.0055 | increase in dead-cell fraction ([6]; 0.01 µM): 0.0157 | increase in dead-cell fraction ([6]; 0.03162 µM): 0.0896 | increase in dead-cell fraction ([6]; 0.1 µM): 0.0459 | increase in dead-cell fraction ([6]; 0.3162 µM): 0.0256 | increase in dead-cell fraction ([6]; 1 µM): 0.035 | increase in dead-cell fraction (LEE011/Ribociclib [7]; 0.001 µM): -0.0008 | increase in dead-cell fraction (LEE011/Ribociclib [7]; 0.003162 µM): -0.0095 | increase in dead-cell fraction (LEE011/Ribociclib [7]; 0.01 µM): -0.0034 | increase in dead-cell fraction (LEE011/Ribociclib [7]; 0.03162 µM): -0.0032 | increase in dead-cell fraction (LEE011/Ribociclib [7]; 0.1 µM): 0.0007 | increase in dead-cell fraction (LEE011/Ribociclib [7]; 0.3162 µM): -0.0014 | increase in dead-cell fraction (LEE011/Ribociclib [7]; 1 µM): -0.0035 | increase in dead-cell fraction (LEE011/Ribociclib [7]; 3.162 µM): -0.0137 | increase in dead-cell fraction (LEE011/Ribociclib [7]; 10 µM): 0.0049 | increase in dead-cell fraction (THZ531; 0.0001 µM): -0.0141 | increase in dead-cell fraction (THZ531; 0.0003162 µM): -0.004 | increase in dead-cell fraction (THZ531; 0.001 µM): 0.0035 | increase in dead-cell fraction (THZ531; 0.003162 µM): -0.0059 | increase in dead-cell fraction (THZ531; 0.01 µM): -0.0057 | increase in dead-cell fraction (THZ531; 0.03162 µM): 0.0007 | increase in dead-cell fraction (THZ531; 0.1 µM): 0.0043 | increase in dead-cell fraction (THZ531; 0.3162 µM): 0.0247 | increase in dead-cell fraction (THZ531; 1 µM): 0.0705 | increase in dead-cell fraction (THZ1; 0.0001 µM): 0.0026 | increase in dead-cell fraction (THZ1; 0.0003162 µM): -0.0097 | increase in dead-cell fraction (THZ1; 0.001 µM): -0.0017 | increase in dead-cell fraction (THZ1; 0.003162 µM): -0.0001 | increase in dead-cell fraction (THZ1; 0.01 µM): -0.006 | increase in dead-cell fraction (THZ1; 0.03162 µM): -0.0078 | increase in dead-cell fraction (THZ1; 0.1 µM): 0.0476 | increase in dead-cell fraction (THZ1; 0.3162 µM): 0.0477 | increase in dead-cell fraction (THZ1; 1 µM): 0.0644 | increase in dead-cell fraction (Flavopiridol; 0.0001 µM): 0.003 | increase in dead-cell fraction (Flavopiridol; 0.0003162 µM): -0.0059 | increase in dead-cell fraction (Flavopiridol; 0.001 µM): -0.0173 | increase in dead-cell fraction (Flavopiridol; 0.003162 µM): 0.0048 | increase in dead-cell fraction (Flavopiridol; 0.01 µM): -0.0068 | increase in dead-cell fraction (Flavopiridol; 0.03162 µM): -0.002 | increase in dead-cell fraction (Flavopiridol; 0.1 µM): 0.0119 | increase in dead-cell fraction (Flavopiridol; 0.3162 µM): 0.0798 | increase in dead-cell fraction (Flavopiridol; 1 µM): 0.0954
